In test [1] the test system is LPA levels. The conditions noted are these: as disclosed in C. Kuttruff, et al.; cited from earlier work.
Test [2] has as its target ATX in human whole blood (Homo sapiens (Human), UniProt Q13822). As to the kind of experiment: Assay B: Whole-Blood ATX Assay. Type of test: biochemical.
Description: 45 μL human whole-blood was supplemented with 5 μL of the test compound, dissolved in phosphate-buffered saline (concentration range 0.12 nM-100 μM). This mixture was incubated for 1 h at 37° C. and stopped by addition of 100 μL 40 mM disodium hydrogen phosphate buffer containing 30 mM citric acid (pH 4) and 1 μM 17:0 LPA (internal standard). LPA was extracted by addition of 500 μL 1-butanol, followed by 10-min centrifugation at 4000 rpm, 4° C. From the resultant organic supernatant, a 200 μL aliquot was transferred into a 96-deep-well plate and transferred to the RapidFire-based MS/MS measurement.
The MS was operated in negative mode with a source temperature of 550° C., curtain gas=35, gas 1=65, and gas 2=80. The following transitions and MS parameters (DP: declustering potential and CE: collision energy) for the respective LPAs were determined: 18:2 LPA at 433.2/152.8, DP=−150, CE=−27 and 17:0 LPA at 423.5/152.8, DP=−100.
The formation of 18:2 LPA was monitored and evaluated as ratio to 17:0 LPA.
[3] abbreviates: human whole-blood, 1 h at 37° C., formation of 18:2 LPA, read-out: Human whole blood LPA IC50.

Structures are written as SMILES. Where two headings read alike, the source gives them in different places.

With `O=C(NC[C@@H]1[C@H]2CN(C(=O)OCc3cc(C(F)(F)F)cc(C(F)(F)F)c3)C[C@@H]12)c1ccc2[nH]nnc2c1`, in test [1], the “LPA levels in vivo” value is given as “significantly reduces”.
In the case of `CC(=O)N1CC2(C1)CN(c1ccc(CNc3ccc(OCc4ccc(C(F)(F)F)nc4)nn3)cc1)C2` [Example 1.1, 1-(6-(4-(((6-((6-(trifluoromethyl)pyridin-3-yl)methoxy)pyridazin-3-yl)amino)methyl)phenyl)-2,6-diazaspiro[3.3]heptan-2-yl)ethan-1-one], the half-inhibitory concentration (IC50) in test [2] (setting [3]) came out at 1.7 nM.
As to `CC(=O)N1CC2(C1)CN(c1ccc(CNc3ccc(OCc4ccc(C(F)F)nc4)nn3)cc1)C2` [Example 1.2], in test [2] (setting [3]), the IC50 was 1 nM.
On to `CC(=O)N1CCN(c2ccc(CNc3ccc(OCc4ccc(C(F)F)nc4)nn3)cc2F)CC1` [Example 1.3], for which the IC50 in test [2] (setting [3]) was determined as 1.6 nM.
For the compound `CC(=O)N1CCN(c2ccc(CNc3ccc(OCc4ccc(C(F)F)nc4)nn3)c(F)c2)CC1` [Example 1.4], the concentration for half-maximal inhibition (IC50) in test [2] (setting [3]) came out at 2.8 nM.
Regarding `CN1CC2(CC1=O)CN(c1ccc(CNc3ccc(OCc4ccc(C(F)F)nc4)nn3)cc1)C2` [Example 1.5], the IC50 in test [2] (setting [3]) was 2 nM.
As for `CC(=O)N1CCC2(CC1)CN(c1ccc(CNc3ccc(OCc4ccc(C(F)F)nc4)nn3)cc1)C2` [Example 1.6], in test [2] (setting [3]), the IC50 is 8.7 nM.
As for `CC(=O)N1CCN(c2ccc(CNc3ccc(OCc4ccc(C(F)F)nc4)nn3)cc2)CC1(C)C` [Example 1.7], the half-inhibitory concentration (IC50) in test [2] (setting [3]) came out at 12.4 nM.
For `CC(=O)N(C)C1CCN(c2ccc(CNc3ccc(OCc4ccc(C(F)(F)F)nc4)nn3)cc2)CC1` [Example 2.1, N-methyl-N-[1-(4-{[(6-{[6-(trifluoromethyl)pyridin-3-yl]methoxy}pyridazin-3-yl)amino]methyl}phenyl)piperidin-4-yl]acetamide], the IC50 in test [2] (setting [3]) amounted to 4.7 nM.
On to `CC(=O)N1CCN(c2ccc(CNc3ccc(OCc4ccc(C(F)(F)F)nc4)nn3)cc2)CC1` [Example 2.2], for which the half-maximal inhibitory concentration (IC50) in test [2] (setting [3]) turned out to be 4.7 nM.
Turning to `CC(=O)N1CCN(c2ccc(CNc3ccc(OCc4ccc(C(F)F)nc4)nn3)cn2)CC1` [Example 2.3], in test [2] (setting [3]), the IC50 turned out to be 4.4 nM.
Same read-out and setting: for `CC(=O)N1CCN(c2ccc(CNc3ccc(OCc4ccc(C(F)F)nc4)nn3)nc2)CC1` [Example 2.4] the value was 6.8 nM; for `CC(=O)N1CCN(c2ccc(CNc3ccc(OCc4ccc(C(F)(F)F)nc4)nn3)cn2)CC1` [Example 2.5], 4 nM; for `CC(=O)N1CC2CC1CN2c1ccc(CNc2ccc(OCc3ccc(C(F)F)nc3)nn2)cc1` (stereo not drawn) [Example 2.6], 3.2 nM.
For the compound `CC(=O)N1CCN(c2ccc(CNc3ccc(OCc4ccc(C(F)F)nc4)nn3)c(C(F)(F)F)c2)CC1` [Example 2.7], the half-inhibitory concentration (IC50) in test [2] (setting [3]) stood at 7 nM.
With `FC(F)(F)c1ccc(COc2ccc(NCc3ccc(N4CCN(C5COC5)CC4)cc3)nn2)cn1` [Example 2.8], in test [2] (setting [3]), the IC50 was determined as 2.4 nM.
Same read-out and setting: as for `CC(=O)N1CC2(C1)CN(c1ccc(CNc3ccc(OCc4ccc(C(F)(F)F)nc4)nn3)cc1F)C2` [Example 2.9], the figure is 4.1 nM; as for `FC(F)c1ccc(COc2ccc(NCc3ccc(N4CCN(C5COC5)CC4)cc3)nn2)cn1` [Example 2.10], 2.2 nM; as for `CC(=O)N[C@H]1[C@@H]2CN(c3ccc(CNc4ccc(OCc5ccc(C(F)(F)F)nc5)nn4)cc3)C[C@@H]21` [Example 2.11], 4 nM.
On the same count and under the same terms, as for `CC(=O)N1CCN(c2ccc(CNc3ccc(OCc4cnc(C(F)F)c(F)c4)nn3)cc2)CC1` [Example 2.12], the figure is 4.3 nM; as for `CC(=O)N1C[C@@H]2CN(c3ccc(CNc4ccc(OCc5ccc(C(F)F)nc5)nn4)cc3)C[C@@H]2C1` [Example 2.14], 2.8 nM.
`CC(=O)N1CCN(c2ccc(CNc3ccc(OCc4ccc(C(F)(F)F)nc4)nn3)nc2)CC1` [Example 2.15]: the IC50 in test [2] (setting [3]) is 9.3 nM.
For the compound `CC(=O)N1CCC2(CC1)CN(c1ccc(CNc3ccc(OCc4ccc(C(F)F)nc4)nn3)nc1)C2` [Example 2.16], the IC50 in test [2] (setting [3]) is 5.1 nM.
Take `CC(=O)N1CCC2(CC1)CN(c1ccc(CNc3ccc(OCc4ccc(C(F)(F)F)nc4)nn3)cn1)C2` [Example 2.17]: the IC50 in test [2] (setting [3]) came out at 3.5 nM.
The same measure, in the same setting: for `CC(=O)N1CCC2(CC1)CN(c1ccc(CNc3ccc(OCc4ccc(C(F)F)nc4)nn3)cn1)C2` [Example 2.18] the value was 4.1 nM.
Compound `CC(=O)N1CC2CCC(C1)N2c1ccc(CNc2ccc(OCc3ccc(C(F)(F)F)nc3)nn2)cc1` [Example 2.19] returned an IC50 in test [2] of 2 nM.
Take `CC(=O)N1CC2CCC1CN2c1ccc(CNc2ccc(OCc3ccc(C(F)(F)F)nc3)nn2)cc1` (stereo not drawn) [Example 2.20]: in test [2] (setting [3]), the concentration for half-maximal inhibition (IC50) came out at 3.7 nM.
Same read-out and setting: for `CC(=O)N1CC2(C1)CN(c1ccc(CNc3ccc(OCc4ccc(C(F)(F)F)nc4)nn3)c(F)c1)C2` [Example 2.21] the value was 1.4 nM; for `CC(=O)N1CCC2(CC1)CN(c1ccc(CNc3ccc(OCc4ccc(C(F)(F)F)nc4)nn3)cc1)C2` [Example 2.22], 3.9 nM; for `CC(=O)N1CC2CC1CN2c1ccc(CNc2ccc(OCc3ccc(C(F)(F)F)nc3)nn2)cc1` (stereo not drawn) [Example 2.23], 3.6 nM.
Take `CC(=O)N1CCN(c2ccc(CNc3ccc(OCc4ccc(C(F)F)nc4)nn3)cc2)CC1` [Example 3, 1-[4-(4-{[(6-{[6-(Difluoromethyl)pyridin-3-yl]methoxy}pyridazin-3-yl)amino]methyl}-phenyl)piperazin-1-yl]ethan-1-one]: in test [2] (setting [3]), the IC50 was 1.9 nM.
As for `CC(=O)N1CC[C@@H]2CN(c3ccc(CNc4ccc(OCc5ccc(C(F)(F)F)nc5)nn4)cc3)C[C@@H]2CC1` [Example 4], the IC50 in test [2] (setting [3]) came to 7.1 nM.
For the compound `CC(=O)N1C[C@@H]2[C@H](C1)[C@H]1CN(c3ccc(CNc4ccc(OCc5ccc(C(F)(F)F)nc5)nn4)cc3)C[C@@H]21` [Example 5, 1-((3aR,3bS,6aR,6bS)-5-(4-(((6-((6-(trifluoromethyl)pyridin-3-yl)methoxy)pyridazin-3-yl)amino)methyl)phenyl)octahydrocyclobuta[1,2-c:3,4-c′]dipyrrol-2(1H)-yl)ethan-1-one], the IC50 in test [2] (setting [3]) was determined as 7.5 nM.

The values above are taken from patent publication US11485727B2, “N-methyl, n-(6-(methoxy)pyridazin-3-yl) amine derivatives as autotaxin (ATX) modulators” (Boehringer Ingelheim International GmbH, priority 2019, dated 2022).
